Measurements: patent US20220274968A1, “Oxazole And Oxadiazole Derivatives Useful As Agonists Of Free Fatty Acid Receptor 1” (GBiotech S.à.r.l., priority 2019, published 2022)

Test system: C57BI/6N male mice
Test: Oral glucose tolerance test (OGTT) in C57BI/6N male mice
Assay type: in vivo
Conditions: single peroral dose 60 min before glucose 2 g/kg; Z1558775684 20 mg/kg, Metformin 300 mg/kg; compared with the Vehicle-treated group; 5 mice per group
Description: Values are expressed as means of 5 animals tested. For glucose tolerance test (GTT), mice were orally treated with glucose at dose of 2 g/kg at the dose volume of 10 ml/kg after a 6-hour fasting. Glucose measurements were performed immediately before compound treatment (−60 min), at −30 min, 0 min (before glucose administration), and then 15, 30, 60, 90 and 120 min after glucose administration.
EXAMPLE 87: OGTT TESTING IN C57BI/6N MALE MICE
Each experimental group consisted of five male C57BI/6N mice. Animals were dosed once perorally with 20 mg/kg of tested compound Z1558775684. A control group was dosed with vehicle on the same schedule. Metformin at the dosage of 300 mg/kg was used as reference compound.
Compound Z1558775684 was dissolved/suspended in DMSO-PEG400-physiological saline (20%:50%:30%) at concentration 4 mg/ml. Metformin was dissolved in the same vehicle at concentration 60 mg/ml. The test samples were administered per os in the volume corresponding to 5 ml/kg body weight.
Single doses of test samples were administered 60 min before glucose treatment at 3 p.m.
The blood glucose level was measured after 6-hour fasting using Call Plus glucometer and specific test strips. Blood was obtained from the tail vein by incision of the tail tip, 5-6 μl of blood was used for each assay. […]

Row | Compound | glucose level during oral glucose tolerance test (OGTT)
1 | CCc1nc(N)nc(SCc2ncc(-c3cccc(Cl)c3)o2)n1 [Compound Z1558775684, 4-({[5-(3-chlorophenyl)-1,3-oxazol-2-yl]methyl}sulfanyl)-6-ethyl-1,3,5-triazin-2-amine] | Statistically significant decrease in glucose level
2 | CN(C)C(=N)N=C(N)N [Metformin] | Statistically significant decrease in glucose level
